Source: patent US20100152261A1 (MITSUBISHI TANABE PHARMA CORPORATION, priority 2005, published 2010)
Read-outs that look alike come from different tables or passages of the source. One block for each compound: values may come before it.

Key:
[1] = molecular target: T1, muscarinic M3 receptor (Cavia porcellus, UniProt H0W1Z3); test: Muscarinic M3 antagonistic action in isolated guinea pig trachea (carbachol-induced contraction, Schild method); format: cell-based; conditions: compound applied 15 minutes before carbachol
T1 construct: trachea was excised, and cut at every two tracheal cartilages to prepare tissue specimens; from tissue; host or cells: isolated guinea pig trachea (male Hartley)
Procedure: Muscarinic M3 Antagonistic Action in Isolated Guinea Pig Trachea
Male Hartley guinea pigs (350 to 600 g) were sacrificed by bleeding, and trachea was excised, and cut at every two tracheal cartilages to prepare tissue specimens. Each tissue specimen was kept warm at 37° C., suspended with a resting tension of 1 g in a 5-mL Magnus bath filled with a Krebs carbonate buffer containing indomethacin (1 μM) bubbled with 95% O2/5% CO2, and left for 60 minutes as a stabilization period. […] After the measurement, the tissue specimen was immediately washed, and left for 60 minutes as a stabilization period before the next contraction reaction, and the tissue specimen of which EC50 for the carbachol-induced contraction reaction was stabilized was considered as a control. Each test compound was applied 15 minutes before the addition of carbachol. The affinity (pA2) of the test compound was obtained by the Schild method (Arunlakshana, O. and Schild, H. O., Brit. J. Pharmacol., 1959, 14, 48-58).

[2] = test system: Bronchoconstriction in Guinea Pigs (induced with acetylcholine); test: Effect on bronchoconstriction in guinea pigs (via inhalation administration), Konzett method; format: in vivo; conditions: guinea pig, intratracheal administration 10 μL g/head, 24 hours after administration, acetylcholine 4 μg/kg i.v., versus control group; for inhibition in vivo at 0.01 mg: Cavia porcellus, iv, read-out: Percent of inhibition of bronchoconstriction (%)
Procedure: Effect on Bronchoconstriction in Guinea Pigs (Via Inhalation Administration)
The test was performed according to the method of Konzett et al. (Arch. Exp. Path Pharmak., 1940, 195, 71-74). Male Hartley guinea pigs (350 to 600 g) were anesthetized with urethane (1.8 g/kg, i.p.), and then a cannula for drug administration was inserted into each left jugular vein. After the immobilization with decamethonium (2 mg/kg, i.v.), a tracheal cannula was inserted, and controlled respiration was attained by a respirator (Harvard). Bronchoconstriction was measured as changes of airway pressure with a pressure transducer (Nihon Kohden Corp.). Each test compound was administered (10 μL g/head) from dissected trachea by using a device for intratracheal administration of liquid for guinea pigs (Penn Century), and after suture, the animals were returned to usual breeding. After 24 hours, acetylcholine (4 μg/kg, i.v.) was administered to induce bronchoconstriction, and inhibitory activity on bronchoconstriction was calculated as percent inhibition comparing to the change of airway pressure in control group was obtained.

[3] = molecular target: T2, muscarinic M2 receptor (Cavia porcellus, UniProt H0VRN8); test: Muscarinic M2 antagonistic action in isolated guinea pig left atrium (carbachol-induced relaxation, Schild method); format: cell-based; conditions: compound applied 30 minutes before carbachol
T2 construct: left atria were excised to prepare tissue specimens; from tissue; host or cells: isolated guinea pig left atrium (male Hartley)
T2 sequence (H0VRN8 1-466): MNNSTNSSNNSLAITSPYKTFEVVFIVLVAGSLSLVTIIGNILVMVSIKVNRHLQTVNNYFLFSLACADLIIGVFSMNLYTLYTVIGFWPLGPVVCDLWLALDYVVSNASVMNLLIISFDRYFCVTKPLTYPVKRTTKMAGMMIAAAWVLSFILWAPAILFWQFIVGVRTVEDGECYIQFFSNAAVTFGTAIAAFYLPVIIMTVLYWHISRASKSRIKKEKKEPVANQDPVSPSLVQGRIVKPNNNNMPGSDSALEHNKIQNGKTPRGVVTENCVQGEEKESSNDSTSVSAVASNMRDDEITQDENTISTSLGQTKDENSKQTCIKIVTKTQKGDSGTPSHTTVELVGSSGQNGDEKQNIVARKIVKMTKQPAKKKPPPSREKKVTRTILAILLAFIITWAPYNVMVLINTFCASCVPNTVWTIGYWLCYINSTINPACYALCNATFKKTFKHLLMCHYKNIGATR
Procedure: Muscarinic M2 Antagonistic Action in Isolated Guinea Pig Left Atrium […] Each tissue specimen was kept warm at 37° C., suspended with a resting tension of 0.5 g in a 5-mL Magnus bath filled with a Krebs carbonate buffer bubbled with 95% O2/5% CO2. Then, contraction evoked by field electrical stimulation (4 Hz, 2 msec, 1.5×threshold potential) was measured. After a stabilization period of 60 minutes, carbachol-induced relaxation was isometrically measured and recorded by the cumulative method from 10^−8 M with an interval of 90 seconds for one concentration in an equal ratio of 3. After the measurement, the tissue specimen was immediately washed, and left for 45 minutes as a stabilization period before the next observation. The tissue specimen of which EC50 for the carbachol-induced relaxation was stabilized was considered as a control. Each test compound was applied 30 minutes before the addition of carbachol. The affinity (pA2) of the test compound was obtained in the same manner as in the case of the trachea.

[4] = isolated guinea pig left atrium
[5] = pA2 Trachea M3, isolated guinea pig trachea
[6] = pA2 Left atrium M2, isolated guinea pig left atrium
[7] = isolated guinea pig trachea, read-out: pA2 Trachea M3 (converted)
[8] = isolated guinea pig left atrium, read-out: pA2 Left atrium M2 (converted)

T1 sequence (H0W1Z3 1-590): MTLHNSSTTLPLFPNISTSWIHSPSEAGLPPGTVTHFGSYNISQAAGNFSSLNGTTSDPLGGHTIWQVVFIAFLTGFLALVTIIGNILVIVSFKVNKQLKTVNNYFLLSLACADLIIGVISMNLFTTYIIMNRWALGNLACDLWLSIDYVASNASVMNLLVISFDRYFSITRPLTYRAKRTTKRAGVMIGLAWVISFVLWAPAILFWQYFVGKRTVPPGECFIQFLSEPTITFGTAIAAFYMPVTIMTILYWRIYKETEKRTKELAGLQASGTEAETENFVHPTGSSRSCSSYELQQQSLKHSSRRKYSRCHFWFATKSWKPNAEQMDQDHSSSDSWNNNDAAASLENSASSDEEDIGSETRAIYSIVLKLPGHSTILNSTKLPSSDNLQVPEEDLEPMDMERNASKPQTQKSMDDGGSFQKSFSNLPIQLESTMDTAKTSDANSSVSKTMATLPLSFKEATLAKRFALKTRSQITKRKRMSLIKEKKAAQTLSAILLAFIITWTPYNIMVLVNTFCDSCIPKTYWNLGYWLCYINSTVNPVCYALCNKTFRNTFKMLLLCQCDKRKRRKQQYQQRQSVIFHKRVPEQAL

SMILES: Cc1n(Cc2ccc(F)cc2)cc[n+]1[C@H]1CC[C@@H](C(C(N)=O)(c2ccccc2)c2ccccc2)C1.[Br-] (relative stereo) [Example 7, 3-(cis-3-(Carbamoyl(diphenyl)methyl)cyclopentyl)-1-(4-fluoro-benzyl)-2-methyl-1-3H-imidazol-1-ium bromide]
pA2 Trachea M3 ([1]; isolated guinea pig trachea): 9.6
Percent of inhibition of bronchoconstriction (%) [2]: 90%
pA2 Left atrium M2 [3, 4]: 8.5

SMILES: Cc1n([C@@H]2CC[C@H](C(C(N)=O)(c3ccccc3)c3ccccc3)C2)cc[n+]1Cc1ccccc1 [Example 91, 3-((1R,3S)-3-(Carbamoyl(diphenyl)methyl)cyclopentyl)-1-benzyl-2-methyl-3H-imidazol-1-ium bromide]
Kb [1, 5]: 0.1 nM
inhibition in vivo at 0.01 mg [2]: 100%
Kb [3, 6]: 3.98 nM

SMILES: COCC[n+]1ccn([C@@H]2CC[C@H](C(C(N)=O)(c3ccccc3)c3ccccc3)C2)c1C [Example 63, 3-((1R,3S)-3-(Carbamoyl(diphenyl)methyl)cyclopentyl)-1-(2-methoxyethyl)-2-methyl-3H-imidazol-1-ium bromide]
Kb [1, 5]: 0.316 nM
inhibition in vivo at 0.01 mg [2]: 100%
Kb [3, 6]: 7.94 nM

SMILES: COCC[n+]1ccn([C@H]2CC[C@@H](C(C(N)=O)(c3ccccc3)c3ccccc3)C2)c1C (relative stereo) [Example 26, 3-(cis-3-(Carbamoyl(diphenyl)methyl)cyclopentyl)-1-(2-methoxy-ethyl)-2-methyl-3H-imidazol-1-ium bromide]
Kb [1, 5]: 0.2 nM
inhibition in vivo at 0.01 mg [2]: 70%
Kb [3, 6]: 12.6 nM

Kb [1, 7]: 0.794 nM
Kb [3, 8]: 50.1 nM
SMILES: Cc1nccn1[C@@H]1CC[C@H](C(C(N)=O)(c2ccccc2)c2ccccc2)C1 (relative stereo) [Reference Example 5, 2-(cis-3-(2-Methylimidazol-1-yl)cyclopentyl)-2,2-diphenylacetamide, reference compound]
inhibition in vivo at 0.01 mg [2]: 0%

Kb [1, 7]: 0.0794 nM
Kb [3, 8]: 5.01 nM
SMILES: Cc1n([C@H]2CC[C@@H](C(C(N)=O)(c3ccccc3)c3ccccc3)C2)cc[n+]1Cc1ccccc1 [Example 83, 3-((1S,3R)-3-(Carbamoyl(diphenyl)methyl)cyclopentyl)-1-benzyl-2-methyl-3H-imidazol-1-ium bromide]
inhibition in vivo at 0.01 mg [2]: 100%

SMILES: Cc1n([C@H]2CC[C@@H](C(C(N)=O)(c3ccccc3)c3ccccc3)C2)cc[n+]1CC1CCC1 (relative stereo) [Example 40, 3-(cis-3-(Carbamoyl(diphenyl)methyl)cyclopentyl)-1-cyclobutylmethyl-2-methyl-3H-imidazol-1-ium bromide]
Kb [1, 5]: 0.398 nM
inhibition in vivo at 0.01 mg [2]: 100%
Kb [3, 6]: 7.94 nM

SMILES: Cc1n([C@H]2CC[C@@H](C(C(N)=O)(c3ccccc3)c3ccccc3)C2)cc[n+]1CC[C@H]1CO1.[Br-] (relative stereo) [Example 36, 3-(cis-3-(Carbamoyl(diphenyl)methyl)cyclopentyl)-2-methyl-1-(2-(S)-oxiranyl-ethyl)-3H-imidazo-1-ium bromide]
pA2 Trachea M3 ([1]; isolated guinea pig trachea): 9
Percent of inhibition of bronchoconstriction (%) [2]: 90%
pA2 Left atrium M2 [3, 4]: 7.7

pA2 Trachea M3 ([1]; isolated guinea pig trachea): 9
pA2 Left atrium M2 [3, 4]: 7.7
SMILES: Cc1n(CC2CO2)cc[n+]1[C@H]1CC[C@@H](C(C(N)=O)(c2ccccc2)c2ccccc2)C1.[Br-] (relative stereo) [Example 22]
Percent of inhibition of bronchoconstriction (%) [2]: 80%

SMILES: CC1=[N+](C)CCN1[C@@H]1CC[C@H](C(C(N)=O)(c2ccccc2)c2ccccc2)C1 [Example 60, 3-((1R,3S)-3-(Carbamoyl(diphenyl)methyl)cyclopentyl)-1,2-dimethyl-4,5-dihydro-3H-imidazol-1-ium para-toluenesulfonate]
Kb [1, 7]: 0.631 nM
inhibition in vivo at 0.01 mg [2]: 90%
Kb [3, 8]: 15.8 nM

SMILES: CC1=[N+](C)CCN1[C@H]1CC[C@@H](C(C(N)=O)(c2ccccc2)c2ccccc2)C1 (relative stereo) [Example 56, 3-(cis-3-(Carbamoyl(diphenyl)methyl)cyclopentyl)-1,2-dimethyl-4,5-dihydro-3H-imidazol-1-ium iodide]
Kb [1, 5]: 2.51 nM
inhibition in vivo at 0.01 mg [2]: 100%
Kb [3, 6]: 31.6 nM

Kb [1, 7]: 5.01 nM
Kb [3, 8]: 79.4 nM
SMILES: CC1=NCCN1[C@@H]1CC[C@H](C(C(N)=O)(c2ccccc2)c2ccccc2)C1 (relative stereo) [Reference Example 13, 2-(cis-3-(2-Methyl-4,5-dihydroimidazol-1-yl)cyclopentyl)-2,2-diphenylacetamide, reference compound]
inhibition in vivo at 0.01 mg [2]: 20%

SMILES: Cc1cccc(C[n+]2ccn([C@H]3CC[C@@H](C(C(N)=O)(c4ccccc4)c4ccccc4)C3)c2C)c1 (relative stereo) [Example 8, 3-(cis-3-(Carbamoyl(diphenyl)methyl)cyclopentyl)-2-methyl-1-(3-methyl-benzyl)-3H-imidazol-1-ium bromide]
Kb [1, 5]: 0.316 nM
inhibition in vivo at 0.01 mg [2]: 90%
Kb [3, 6]: 10 nM

SMILES: CC(=O)C[n+]1ccn([C@@H]2CC[C@H](C(C(N)=O)(c3ccccc3)c3ccccc3)C2)c1C [Example 90, 3-((1R,3S)-3-(Carbamoyl(diphenyl)methyl)cyclopentyl)-2-methyl-1-(2-oxopropyl)-3H-imidazol-1-ium bromide]
Kb [1, 5]: 0.794 nM
inhibition in vivo at 0.01 mg [2]: 100%
Kb [3, 6]: 316 nM
